Data published in patent US20250282749A1 (Tango Therapeutics, Inc., priority 2022, published 2025).

Columns and labels:
Assay type in all cases: cell-based
[1] = tested on: HAP1 MTAP-deleted cell line; test: viability assay for the MTAP-deleted cell line; conditions: Homo sapiens
[2] = tested on: PRMT5 (SDMA) in HAP1 MTAP-deleted cell line; test: SDMA in-cell western assay, HAP1 MTAP-deleted cell line; conditions: for IC50 / IC90: Homo sapiens, SDMA in-cell western, HAP1 MTAP-deleted (MTAP-null) cell line; for Hap1 MTAP intact/deleted ratio: ratio of SDMA in-cell western IC50 in HAP1 MTAP-intact to IC50 in HAP1 MTAP-deleted cell line
Text: (§1) HAP1 MTAP-intact is a cell line in which endogenous levels of MTAP are expressed, and HAP1 MTAP-deleted is an MTAP-null cell line.

[3] = tested on: PRMT5 (SDMA) in HAP1 MTAP-intact cell line; test: SDMA in-cell western assay, HAP1 MTAP-intact cell line; conditions: Homo sapiens, HAP1 MTAP-intact cell line (endogenous MTAP), read-out: Hap 1 MTAP intact IC50
Text: as §1

IC50 [2] [nM]	IC90 [2] [nM]	IC50 [3] [nM]	Compound	IC50 [1] [nM]	Hap1 MTAP intact/deleted ratio [2]
< 5	< 75	5 to 50	CCc1cc(NC(=O)C(=O)N2C[C@@H](C)N(C(=O)C3(C(F)(F)F)CC3)C[C@@H]2c2ccc(F)c(Cl)c2)cnc1N [Compound 139, N-(6-amino-5-ethylpyridin-3-yl)-2-((2S,5R)-2-(3-chloro-4-fluorophenyl)-5-methyl-4-(1-(trifluoromethyl)cyclopropanecarbonyl)piperazin-1-yl)-2-oxoacetamide]	< 100	B (an IC50 ratio greater than or equal to 15 fold but lower than 30 fold)
5 to 50	< 75	> 50	CCc1cc(NC(=O)C(=O)N2C[C@@H](C)N(C(=O)C3(C)CC3)C[C@@H]2c2ccccc2)cnc1N [Compound 58, N-(6-amino-5-ethylpyridin-3-yl)-2-((2S,5R)-5-methyl-4-(1-methylcyclopropanecarbonyl)-2-phenylpiperazin-1-yl)-2-oxoacetamide]	< 100	C (an IC50 ratio of less than 15 fold)
5 to 50	75 to 125	> 50	CCc1cc(NC(=O)C(=O)N2C[C@H](C)N(C(=O)CC3CC3)C[C@H]2c2ccc(F)cc2)cnc1N [Compound 73, N-(6-amino-5-ethyl-3-pyridyl)-2-[(2R,5S)-4-(2-cyclopropylacetyl)-2-(4-fluorophenyl)-5-methyl-piperazin-1-yl]-2-oxo-acetamide]	< 100	B (an IC50 ratio greater than or equal to 15 fold but lower than 30 fold)
< 5	< 75	> 50	CCc1cc(NC(=O)C(=O)N2C[C@@H](C)N(C(=O)C3(C)CC3)C[C@@H]2c2ccc(N3CCN(C)CC3)cc2)cnc1N [Compound 105, N-(6-amino-5-ethylpyridin-3-yl)-2-((2S,5R)-5-methyl-4-(1-methylcyclopropanecarbonyl)-2-(4-(4-methylpiperazin-1-yl)phenyl)piperazin-1-yl)-2-oxoacetamide]	< 100	B (an IC50 ratio greater than or equal to 15 fold but lower than 30 fold)

The remaining lines, values behind:

Compound	IC50 [2] [nM]	IC90 [2] [nM]	IC50 [3] [nM]	IC50 [1] [nM]	Hap1 MTAP intact/deleted ratio [2]
CCc1cc(NC(=O)C(=O)N2C[C@@H](C)N(CC(C)(C)C)C[C@@H]2c2ccccc2)cnc1N [Compound 121, N-(6-amino-5-ethylpyridin-3-yl)-2-((2S,5R)-5-methyl-4neopentyl-2-phenylpiperazin-1-yl)-2-oxoacetamide]	5 to 50	75 to 125	> 50	< 100	B (an IC50 ratio greater than or equal to 15 fold but lower than 30 fold)
CCc1cc(NC(=O)C(=O)N2C[C@@H](C)N(C(=O)C(C)C)C[C@@H]2c2cccc(OCCN(C)C)c2)cnc1N [Compound 67, N-(6-amino-5-ethylpyridin-3-yl)-2-((2S,5R)-2-(3-(2-(dimethylamino)ethoxy)phenyl)-4-isobutyryl-5-methylpiperazin-1-yl)-2-oxoacetamide]	< 5	< 75	5 to 50	< 100	C (an IC50 ratio of less than 15 fold)
Cc1cc(NC(=O)C(=O)N2C[C@@H](C)N(C(=O)OC(C)(C)C)C[C@@H]2c2ccccc2)cnc1N [Compound 25]	< 5	< 75	5 to 50	< 100	C (an IC50 ratio of less than 15 fold)
C[C@@H]1CN(C(=O)C(=O)Nc2cnc(N)c(C3CC3)c2)[C@@H](c2ccccc2)CN1C(=O)C1(C)CC1 [Compound 94, N-(6-amino-5-cyclopropylpyridin-3-yl)-2-((2S,5R)-5-methyl-4-(1-methylcyclopropanecarbonyl)-2-phenylpiperazin-1-yl)-2-oxoacetamide]	< 5	75 to 125	> 50	< 100	B (an IC50 ratio greater than or equal to 15 fold but lower than 30 fold)
